Converted amounts (≈) assume the structure as drawn.
Assays:
Escherichia coli [1] = test: Antibacterial activity against Escherichia coli ATCC35218 assessed as bacterial growth inhibition measured after 18 to 24 hrs inhibition by broth microdilution assay; assay type: functional; details: time 18-24 hrs
Pseudomonas aeruginosa [2] = test: Antibacterial activity against Pseudomonas aeruginosa ATCC43288 assessed as bacterial growth inhibition measured after 18 to 24 hrs inhibition by broth microdilution assay; assay type: functional; details: time 18-24 hrs
Pseudomonas aeruginosa [3] = test: Antibacterial activity against Pseudomonas aeruginosa […] assessed as bacterial growth inhibition measured after 18 to 24 hrs inhibition by broth microdilution assay; assay type: functional; details: time 18-24 hrs
Escherichia coli [4] = test: Antibacterial activity against Escherichia coli ATCC 8739 assessed as bacterial growth inhibition by agar dilution method; assay type: functional
Klebsiella pneumoniae [5] = test: Antibacterial activity against Klebsiella pneumoniae ATCC 10031 assessed as bacterial growth inhibition by agar dilution method; assay type: functional
Enterobacter cloacae = test: Antibacterial activity against Enterobacter cloacae PTCC 1003 assessed as bacterial growth inhibition by agar dilution method; assay type: functional
Staphylococcus aureus [6] = test: Antibacterial activity against clinical isolate methicillin resistant Staphylococcus aureus assessed as bacterial growth inhibition by microdilution assay; assay type: functional
Staphylococcus aureus [7] = test: Antibacterial activity against Staphylococcus aureus ATCC 25923 assessed as bacterial growth inhibition by microdilution assay; assay type: functional
[8] = test system: Mycobacterium tuberculosis; test: Antimycobacterial activity against pan sensitive Mycobacterium tuberculosis R2012-123 assessed as bacterial growth inhibition by agar cup diffusion assay; assay type: functional
Escherichia coli [9] = test: Antibacterial activity against Escherichia coli assessed as bacterial growth inhibition by agar cup diffusion assay; assay type: functional
Klebsiella pneumoniae [10] = test: Antibacterial activity against Klebsiella pneumoniae assessed as bacterial growth inhibition by agar cup diffusion assay; assay type: functional
[11] = test system: Mycobacterium tuberculosis; test: Antimycobacterial activity against Mycobacterium tuberculosis H37Rv assessed as bacterial growth inhibition by agar cup diffusion assay; assay type: functional
Staphylococcus aureus [12] = test: Antibacterial activity against Staphylococcus aureus assessed as bacterial growth inhibition by agar cup diffusion assay; assay type: functional
Escherichia coli [13] = test: Antibacterial activity against Escherichia coli assessed as bacterial growth inhibition by broth microdilution assay; assay type: functional
Staphylococcus aureus [14] = test: Antibacterial activity against Staphylococcus aureus assessed as bacterial growth inhibition by broth microdilution assay; assay type: functional
Staphylococcus aureus [15] = test: Potency index, ratio of norfloxacin MIC to test compound MIC for antimicrobial activity against Staphylococcus aureus assessed as bacterial growth inhibition measured after 18 to 24 hrs inhibition by broth microdilution assay; assay type: functional; details: time 18-24 hrs
Staphylococcus aureus [16] = test: Potency index, ratio of ciprofloxacin MIC to test compound MIC for antimicrobial activity against Staphylococcus aureus assessed as bacterial growth inhibition by agar cup diffusion assay; assay type: functional
Klebsiella pneumoniae [17] = test: Antibacterial activity against Klebsiella pneumoniae assessed as bacterial growth inhibition by agar streak dilution assay; assay type: functional
Escherichia coli [18] = test: Antibacterial activity against Escherichia coli assessed as bacterial growth inhibition by agar streak dilution assay; assay type: functional
Staphylococcus aureus [19] = test: Antibacterial activity against Staphylococcus aureus assessed as bacterial growth inhibition by agar streak dilution assay; assay type: functional
Escherichia coli [20] = test: Antibacterial activity against Escherichia coli clinical isolate assessed as zone of inhibition at 50 mg/ml by agar diffusion assay; assay type: functional; details: read-out: IZ
Escherichia coli [21] = test: Antibacterial activity against Escherichia coli ATCC 25922 assessed as zone of inhibition at 50 mg/ml by agar diffusion assay; assay type: functional; details: read-out: IZ
Staphylococcus aureus [22] = test: Antibacterial activity against Staphylococcus aureus clinical isolate assessed as zone of inhibition at 50 mg/ml by agar diffusion assay; assay type: functional; details: read-out: IZ
Staphylococcus aureus [23] = test: Antibacterial activity against Staphylococcus aureus ATCC 25923 assessed as zone of inhibition at 50 mg/ml by agar diffusion assay; assay type: functional; details: read-out: IZ
Staphylococcus aureus [24] = test: Antibacterial activity against Staphylococcus aureus assessed as bacterial growth inhibition by agar well diffusion assay; assay type: functional, organism-based
Candida albicans = test: Antifungal activity against Candida albicans assessed as fungal growth inhibition by agar well diffusion assay; assay type: functional
Pseudomonas aeruginosa [25] = test: Antibacterial activity against Pseudomonas aeruginosa assessed as bacterial growth inhibition by agar well diffusion assay; assay type: functional, organism-based
Escherichia coli [26] = test: Antibacterial activity against Escherichia coli assessed as bacterial growth inhibition by agar well diffusion assay; assay type: functional, organism-based
Aspergillus niger [27] = test: Antifungal activity against Aspergillus niger assessed as fungal growth inhibition by agar well diffusion assay; assay type: functional
Staphylococcus aureus [28] = test: Antibacterial activity against Staphylococcus aureus ATCC 25923 assessed as bacterial growth inhibition measured after 18 to 24 hrs by agar dilution assay; assay type: functional; details: time 18-24 hrs
Staphylococcus aureus [29] = test: Potency index, ratio of ciprofloxacin MIC to test compound MIC for antibacterial activity against Staphylococcus aureus ATCC 25923 assessed as bacterial growth inhibition measured after 18 to 24 hrs by agar dilution assay; assay type: functional; details: time 18-24 hrs
Aspergillus niger [30] = test: Antifungal activity against Aspergillus niger assessed as fungal growth inhibition by agar cup diffusion assay; assay type: functional
Aspergillus fumigatus = test: Antifungal activity against Aspergillus fumigatus assessed as fungal growth inhibition by agar cup diffusion assay; assay type: functional
Pseudomonas aeruginosa [31] = test: Antibacterial activity against Pseudomonas aeruginosa assessed as bacterial growth inhibition by agar cup diffusion assay; assay type: functional
Staphylococcus aureus [32] = test: Antibacterial activity against methicillin resistant Staphylococcus aureus assessed as bacterial growth inhibition by agar cup diffusion assay; assay type: functional
Staphylococcus aureus [33] = test: Antibacterial activity against Staphylococcus aureus ATCC 29213 assessed as bacterial growth inhibition measured after 24 hrs by agar disc diffusion assay; assay type: functional
Pseudomonas aeruginosa [34] = test: Antibacterial activity against Pseudomonas aeruginosa ATCC 27853 assessed as bacterial growth inhibition measured after 24 hrs by agar disc diffusion assay; assay type: functional
Escherichia coli [35] = test: Antibacterial activity against Escherichia coli ATCC 25922 assessed as bacterial growth inhibition measured after 24 hrs by agar disc diffusion assay; assay type: functional

O=C(O)c1cn(C2CC2)c2cc(N3CCN(Cn4nc(CN5CCN(c6ccc([N+](=O)[O-])cc6)CC5)oc4=S)CC3)c(F)cc2c1=O
MIC (Escherichia coli [1]): 0.03 µg/mL (≈ 0.0451 µM)
MIC (Pseudomonas aeruginosa [2]): 0.03 µg/mL (≈ 0.0451 µM)
MIC (Pseudomonas aeruginosa [3]): 0.03 µg/mL (≈ 0.0451 µM)

CC(=O)C(C(C)=O)C(=O)c1cn(C2CC2)c2cc(N3CCN(/N=N/c4nc(C)cc(C)n4)CC3)c(F)cc2c1=O
MIC (Escherichia coli [4]): 0.015 µg/mL (≈ 0.0274 µM)
MIC (Klebsiella pneumoniae [5]): 0.015 µg/mL (≈ 0.0274 µM)
MIC (Enterobacter cloacae): 0.015 µg/mL (≈ 0.0274 µM)

COc1c(N2C[C@H]3CCCN(S(=O)(=O)c4ccc(F)cc4)[C@H]3C2)c(F)cc2c(=O)c(C(=O)O)cn(C3CC3)c12
MIC (Staphylococcus aureus [6]): < 2.64 µg/mL
MIC (Staphylococcus aureus [7]): < 2.64 µg/mL

COc1ccc(S(=O)(=O)N2CCC[C@@H]3CN(c4c(F)cc5c(=O)c(C(=O)O)cn(C6CC6)c5c4OC)C[C@@H]32)cc1
MIC (Staphylococcus aureus [6]): < 2.64 µg/mL
MIC (Staphylococcus aureus [7]): < 2.64 µg/mL

C=CCn1c(SCC(=O)N2CCN(c3cc4c(cc3F)c(=O)c(C(=O)O)cn4C3CC3)CC2)nnc1-c1ccccc1
MIC [8]: 4 µg/mL (≈ 6.8 µM)
MIC (Escherichia coli [9]): 1.7 µg/mL (≈ 2.89 µM)
MIC (Klebsiella pneumoniae [10]): 1.7 µg/mL (≈ 2.89 µM)
MIC [11]: 4 µg/mL (≈ 6.8 µM)
MIC (Staphylococcus aureus [12]): 1.7 µg/mL (≈ 2.89 µM)

COc1c(N2C[C@H]3CCCN(S(=O)(=O)c4ccc(Cl)cc4)[C@H]3C2)c(F)cc2c(=O)c(C(=O)O)cn(C3CC3)c12
MIC (Staphylococcus aureus [6]): < 2.64 µg/mL
MIC (Staphylococcus aureus [7]): < 2.64 µg/mL

O=C(O)c1cn(C2CC2)c2cc(N3CCN(Cc4nnc(-c5cccc(O)c5)o4)CC3)c(F)cc2c1=O
MIC (Escherichia coli [13]): ≤ 0.125 µg/mL
MIC (Staphylococcus aureus [14]): 0.125 µg/mL (≈ 0.247 µM)
Ratio (Staphylococcus aureus [15]): >=4
Ratio (Staphylococcus aureus [16]): >=4
MIC (Staphylococcus aureus [12]): 0.3 µg/mL (≈ 0.593 µM)

COc1c(N2CCN([S+]([O-])c3ccc(N)c(C)c3)C(C)C2)c(F)c(C)c2c(=O)c(C(=O)O)cn(C3CC3)c12 (stereo not drawn)
MIC (Klebsiella pneumoniae [17]): 0.9 µg/mL (≈ 1.66 µM)
MIC (Escherichia coli [18]): 0.9 µg/mL (≈ 1.66 µM)
MIC (Staphylococcus aureus [19]): 0.9 µg/mL (≈ 1.66 µM)

CNc1ccc([S+]([O-])N2CCN(c3c(F)c(C)c4c(=O)c(C(=O)O)cn(C5CC5)c4c3OC)CC2C)cc1C (stereo not drawn)
MIC (Klebsiella pneumoniae [17]): 0.9 µg/mL (≈ 1.62 µM)
MIC (Escherichia coli [18]): 0.9 µg/mL (≈ 1.62 µM)
MIC (Staphylococcus aureus [19]): 0.9 µg/mL (≈ 1.62 µM)

COC(=O)c1cn(C2CC2)c2cc(N3CCN(C(=O)c4nnn(-c5ccc(SC)cc5)c4N)CC3)c(F)cc2c1=O
zone of inhibition at 50000 µg/mL (Escherichia coli [20]): 26.3 mm
zone of inhibition at 50000 µg/mL (Escherichia coli [21]): 26.3 mm
zone of inhibition at 50000 µg/mL (Staphylococcus aureus [22]): 26.3 mm
zone of inhibition at 50000 µg/mL (Staphylococcus aureus [23]): 26.3 mm

C#CCSc1nnc(-c2cn(CC)c3cc(N4CCN(C(=O)C(O)(CC(=O)O)CC(=O)O)CC4)c(F)cc3c2=O)o1
MIC (Staphylococcus aureus [24]): 1.61 µg/mL (≈ 2.74 µM)
MIC (Candida albicans): 2.18 µg/mL (≈ 3.71 µM)
MIC (Pseudomonas aeruginosa [25]): 1.61 µg/mL (≈ 2.74 µM)
MIC (Escherichia coli [26]): 1.61 µg/mL (≈ 2.74 µM)
MIC (Aspergillus niger [27]): 1.47 µg/mL (≈ 2.5 µM)

COC(=O)c1cn(C2CC2)c2cc(N3CCN(Cc4cn(-c5ccc(C(C)=O)cc5)nn4)CC3)c(F)cc2c1=O
MIC (Staphylococcus aureus [28]): 3.12 µg/mL (≈ 5.73 µM)
Ratio (Staphylococcus aureus [29]): 2

Nc1ccc(-c2nnc(-c3cn(C4CC4)c4cc(N5CCNCC5)c(F)cc4c3=O)o2)c(O)c1
MIC (Aspergillus niger [30]): 9.8 µg/mL (≈ 21.2 µM)
MIC (Aspergillus fumigatus): 9.8 µg/mL (≈ 21.2 µM)
MIC (Escherichia coli [9]): 0.3 µg/mL (≈ 0.649 µM)
MIC (Pseudomonas aeruginosa [31]): 0.3 µg/mL (≈ 0.649 µM)

O=C(O)c1cn(C2CC2)c2cc(N3CCN(C(=O)CN4C(=O)S/C(=C\c5ccco5)C4=O)CC3)c(F)cc2c1=O
MIC (Staphylococcus aureus [32]): 0.22 µg/mL (≈ 0.388 µM)
MIC (Staphylococcus aureus [12]): 0.005 µg/mL (≈ 0.00883 µM)

COC(=O)[C@H](C)NC(=O)c1cc(=O)n(Cc2cn([C@@H](NC(=O)c3ccccc3)C(=O)OC)nn2)c2ccccc12
MIC (Staphylococcus aureus [33]): 19 µg/mL (≈ 34.8 µM)
MIC (Pseudomonas aeruginosa [34]): 19 µg/mL (≈ 34.8 µM)
MIC (Escherichia coli [35]): 19 µg/mL (≈ 34.8 µM)

Reference: ChEMBL document CHEMBL5360532, “Current scenario of quinolone hybrids with potential antibacterial activity against ESKAPE pathogens” (Eur J Med Chem, 2023)
